{"source": "paper PMC11784099", "about": "(Journal of Virology, 2024)", "key": {"[1]": {"tested_on": "Pseudorabies virus (Ra strain)", "experiment": "microbe, parasite or virus in culture", "type": "cell-based"}, "[2]": {"tested_on": "cGAS/STING signaling pathway", "type": "cell-based, pigs"}, "in vitro": {"experiment": "in vitro", "settings": "pig"}, "cGAMP production": {"tested_on": "cGAMP production", "type": "cell-based, pigs"}, "[3]": {"tested_on": "IRF3 phosphorylation (cGAS/STING signaling pathway)", "type": "cell-based, pigs"}, "p-IRF3": {"tested_on": "p-IRF3", "type": "cell-based, pigs"}, "[4]": {"tested_on": "JAK/STAT signaling pathway", "type": "cell-based, pigs"}, "[5]": {"tested_on": "JAK/STAT signaling pathway", "type": "cell-based, pigs", "remark": "listed apart in the source"}, "IFN-β promoter": {"tested_on": "IFN-β promoter", "type": "cell-based"}, "[6]": {"tested_on": "cGAS/STING signaling pathway", "type": "cell-based"}, "PRV [7]": {"tested_on": "PRV", "design": "species or system mice", "settings": "mouse, in vivo"}, "[8]": {"tested_on": "type I interferon signaling pathway", "design": "species or system mice", "settings": "mouse, in vivo"}, "[9]": {"tested_on": "type I interferon signaling pathway", "design": "species or system mice", "settings": "mouse, in vivo", "remark": "listed apart in the source"}, "IFN-β": {"tested_on": "IFN-β", "design": "species or system mice", "settings": "mouse, in vivo"}, "PRV [10]": {"tested_on": "PRV", "settings": "mouse, in vivo; cited from earlier work"}, "[11]": {"settings": "Suid alphaherpesvirus 1, PK-15, 1 h"}}, "note": "pIC50: −log10 of the molar value. Read-outs that look alike come from different tables or passages of the source.", "data": [{"compound": "O=c1cc(-c2ccccc2)oc2cc(O)c(O)c(O)c12", "note": "[Baicalein]", "values": [{"measurement": "pIC50", "setting": "[1]; read-out: IC50", "value": 3.54}, {"measurement": "mRNA expression level of cGAS", "setting": "[2]", "value": "significantly enhance"}, {"measurement": "mRNA level of IRF3", "setting": "[2]", "value": "no discernible differences"}, {"measurement": "mRNA level of STING", "setting": "[2]", "value": "significantly increase"}, {"measurement": "mRNA levels of IFN-β", "setting": "[2]", "value": "significantly elevate"}, {"measurement": "CC50", "setting": "PK-15 cells", "value": 563, "unit": "µM"}]}, {"compound": "COc1ccc(-c2coc3cc(O)cc(O)c3c2=O)cc1", "note": "[Biochanin A]", "values": [{"measurement": "CC50", "setting": "PK-15 cells", "value": 382, "unit": "µM"}]}, {"compound": "O=c1cc(-c2ccccc2)oc2cc(O)cc(O)c12", "note": "[Chrysin]", "values": [{"measurement": "CC50", "setting": "in vitro", "value": 107, "unit": "µM"}]}, {"compound": "O=C1c2c(O)cc(O)cc2O[C@H](c2cc(O)c(O)c(O)c2)[C@H]1O", "note": "[Dihydromyricetin]", "values": [{"measurement": "pIC50", "setting": "[1]; [11]", "value": 3.79}, {"measurement": "CC50", "setting": "in vitro", "value": 914, "unit": "µM"}]}, {"compound": "O=c1c(O)c(-c2ccc(O)c(O)c2)oc2cc(O)ccc12", "note": "[Fisetin]", "values": [{"measurement": "IC50", "setting": "[1]", "value": "–^b"}, {"measurement": "CC50", "setting": "in vitro", "value": 717, "unit": "µM"}]}, {"compound": "COc1ccc(-c2coc3cc(O)ccc3c2=O)cc1", "note": "[Formononetin]", "values": [{"measurement": "CC50", "setting": "in vitro", "value": 228, "unit": "µM"}]}, {"compound": "COc1ccc([C@@H]2CC(=O)c3c(O)cc(O[C@@H]4O[C@H](CO[C@@H]5O[C@@H](C)[C@H](O)[C@@H](O)[C@H]5O)[C@@H](O)[C@H](O)[C@H]4O)cc3O2)cc1O", "note": "[Hesperidin]", "values": [{"measurement": "CC50", "setting": "PK-15 cells", "value": "> 238", "unit": "µM"}]}, {"compound": "COc1ccc(-c2oc3c(CC=C(C)C)c(O[C@@H]4O[C@H](CO)[C@@H](O)[C@H](O)[C@H]4O)cc(O)c3c(=O)c2O[C@@H]2O[C@@H](C)[C@H](O)[C@@H](O)[C@H]2O)cc1", "note": "[Icariin]", "values": [{"measurement": "CC50", "setting": "in vitro", "value": "> 382", "unit": "µM"}]}, {"compound": "O=c1c(O)c(-c2ccc(O)cc2)oc2cc(O)cc(O)c12", "note": "[Kaempferol]", "values": [{"measurement": "pIC50", "setting": "[1]; [11]", "value": 4.59}, {"measurement": "CC50", "setting": "in vitro", "value": 255, "unit": "µM"}]}, {"compound": "O=C1C[C@@H](c2ccc(O)cc2)Oc2cc(O)ccc21", "note": "[Liquiritigenin]", "values": [{"measurement": "pIC50", "setting": "[1]; read-out: IC50", "value": 3.49}, {"measurement": "CC50", "setting": "PK-15 cells", "value": 790, "unit": "µM"}]}, {"compound": "O=c1cc(-c2ccc(O)c(O)c2)oc2cc(O)cc(O)c12", "note": "[Lutelin]", "values": [{"measurement": "pIC50", "setting": "[1]; [11]", "value": 4.43}, {"measurement": "mRNA expression level of cGAS", "setting": "[2]", "value": "significantly enhance"}, {"measurement": "mRNA level of IRF3", "setting": "[2]", "value": "no discernible differences"}, {"measurement": "mRNA level of STING", "setting": "[2]", "value": "significantly increase"}, {"measurement": "CC50", "setting": "in vitro", "value": 195, "unit": "µM"}]}, {"compound": "O=c1c2cc(O)c(O)cc2oc2cc(O)c([C@@H]3O[C@H](CO)[C@@H](O)[C@H](O)[C@H]3O)c(O)c12", "note": "[Mangiferin]", "values": [{"measurement": "CC50", "setting": "in vitro", "value": "> 1050", "unit": "µM"}]}, {"compound": "O=c1c(O)c(-c2cc(O)c(O)c(O)c2)oc2cc(O)cc(O)c12", "note": "[Myricetin]", "values": [{"measurement": "pIC50", "setting": "[1]; [11]", "value": 4.37}, {"measurement": "mRNA expression level of cGAS", "setting": "[2]", "value": "significantly enhance"}, {"measurement": "mRNA level of IRF3", "setting": "[2]", "value": "significantly increase"}, {"measurement": "mRNA level of STING", "setting": "[2]", "value": "significantly increase"}, {"measurement": "mRNA levels of IFN-β", "setting": "[2]", "value": "significantly elevate"}, {"measurement": "mRNA levels of cGAS, STING, TBK1, IRF3, IRF7 and IFN-β", "setting": "[2]", "value": "all increased"}, {"measurement": "increase in cGAMP production compared with the blank group", "setting": "cGAMP production", "value": "~1.5", "unit": "fold"}, {"measurement": "levels of p-IRF3 and p-IRF3/IRF3", "setting": "[3]", "value": "significantly elevated"}, {"measurement": "total amount of IRF3 phosphorylation (fluorescence intensity)", "setting": "p-IRF3", "value": "significant enhancement"}, {"measurement": "transcriptional levels of JAK1, STAT1, IRF9, ISG15, ISG56 and ISG54", "setting": "[4]", "value": "notable elevation"}, {"measurement": "effect proteins ISG15 and OAS1", "setting": "[5]", "value": "significantly increased"}, {"measurement": "protein levels of STAT1, p-STAT1 and p-STAT1/STAT1", "setting": "[5]", "value": "significantly higher"}, {"measurement": "expression level of the IFN-β promoter, ratio to infected control group", "setting": "IFN-β promoter", "value": "~2", "unit": "fold"}, {"measurement": "protein expressions of cGAS, STING, TBK1, IRF3 and p-IRF3", "setting": "[6]", "value": "significantly increase"}, {"measurement": "mortality rate at 4 dpi", "setting": "PRV [7]", "value": 70, "unit": "%"}, {"measurement": "transcriptional levels of cGAS, STING, TBK1, IRF3, IRF7, IFN-β, ISG56 and ISG54 in heart, liver, spleen, lung and kidney", "setting": "[8]", "value": "significantly higher"}, {"measurement": "expression levels of antiviral effectors MX1, OAS1 and ISG15 in brain and kidney", "setting": "[9]", "value": "higher expression levels"}, {"measurement": "production of IFN-β in tissues (ELISA)", "setting": "IFN-β", "value": "significantly promote"}, {"measurement": "mortality rate at 4 dpi", "setting": "PRV [10]", "value": 0, "unit": "%"}, {"measurement": "mortality rate at 5 dpi", "setting": "PRV [10]", "value": 30, "unit": "%"}, {"measurement": "reduction in viral copies in the kidney", "setting": "PRV [10]", "value": "up to 80 fold"}, {"measurement": "CC50", "setting": "in vitro", "value": "> 1000", "unit": "µM"}]}, {"compound": "O=C1C[C@@H](c2ccc(O)cc2)Oc2cc(O)cc(O)c21", "note": "[Naringenin]", "values": [{"measurement": "mRNA expression level of cGAS", "setting": "[2]", "value": "significantly enhance"}, {"measurement": "mRNA level of IRF3", "setting": "[2]", "value": "no discernible differences"}, {"measurement": "mRNA levels of IFN-β", "setting": "[2]", "value": "significantly elevate"}]}, {"compound": "COc1ccc([C@@H]2CC(=O)c3c(O)cc(O[C@@H]4O[C@H](CO)[C@@H](O)[C@H](O)[C@H]4O[C@@H]4O[C@@H](C)[C@H](O)[C@@H](O)[C@H]4O)cc3O2)cc1O", "note": "[Neohesperidin]", "values": [{"measurement": "CC50", "setting": "PK-15 cells", "value": "> 1000", "unit": "µM"}]}, {"compound": "COc1cc2c(cc1OC)-c1cc3ccc(OC)c(OC)c3c[n+]1CC2", "note": "[Palmatine]", "values": [{"measurement": "CC50", "setting": "PK-15 cells", "value": 1250, "unit": "µM"}]}, {"compound": "OC[C@H]1O[C@@H](Oc2cc(O)cc(/C=C/c3ccc(O)cc3)c2)[C@H](O)[C@@H](O)[C@@H]1O", "note": "[Polydatin]", "values": [{"measurement": "CC50", "setting": "in vitro", "value": "> 466", "unit": "µM"}]}, {"compound": "O=c1c(O)c(-c2ccc(O)c(O)c2)oc2cc(O)cc(O)c12", "note": "[Quercetin]", "values": [{"measurement": "CC50", "setting": "PK-15 cells; pig", "value": 890, "unit": "µM"}, {"measurement": "CC50", "setting": "in vitro", "value": 449, "unit": "µM"}]}, {"compound": "C[C@@H]1O[C@@H](OC[C@H]2O[C@@H](Oc3c(-c4ccc(O)c(O)c4)oc4cc(O)cc(O)c4c3=O)[C@H](O)[C@@H](O)[C@@H]2O)[C@H](O)[C@H](O)[C@H]1O", "note": "[Rutin]", "values": [{"measurement": "CC50", "setting": "in vitro", "value": "> 389", "unit": "µM"}]}, {"compound": "O=C(O)[C@H]1O[C@@H](Oc2cc3oc(-c4ccc(O)cc4)cc(=O)c3c(O)c2O)[C@H](O)[C@@H](O)[C@@H]1O", "note": "[Scutellarin]", "values": [{"measurement": "CC50", "setting": "in vitro", "value": "> 213", "unit": "µM"}]}, {"compound": "COc1cc(C2Oc3cc([C@H]4Oc5cc(O)cc(O)c5C(=O)[C@@H]4O)ccc3OC2CO)ccc1O", "note": "(some centres unmarked) [Silibinin]", "values": [{"measurement": "pIC50", "setting": "[1]; [11]", "value": 3.69}, {"measurement": "CC50", "setting": "in vitro", "value": 392, "unit": "µM"}]}, {"compound": "CC1(C)[C@@H](O[C@H]2O[C@H](C(=O)O)[C@@H](O)[C@H](O)[C@H]2O[C@@H]2O[C@H](C(=O)O)[C@@H](O)[C@H](O)[C@H]2O)CC[C@]2(C)[C@H]3C(=O)C=C4[C@@H]5C[C@@](C)(C(=O)O)CC[C@]5(C)CC[C@@]4(C)[C@]3(C)CC[C@@H]12", "note": "[glycyrrhizic acid]", "values": [{"measurement": "pIC50", "setting": "[1]; [11]", "value": "3.49 to 4.63"}]}, {"compound": "Oc1ccc(/C=C/c2cc(O)cc(O)c2)cc1", "note": "[resveratrol]", "values": [{"measurement": "pIC50", "setting": "[1]; [11]", "value": "3.49 to 4.63"}]}, {"compound": "Pueraria", "values": [{"measurement": "CC50", "setting": "PK-15 cells", "value": "> 461", "unit": "µM"}]}]}
